For the assay, the target named is T1, CFTR (Homo sapiens, UniProt P13569, DEL508-508).
T1 construct: endogenous in cells; host or cells: primary human bronchial epithelial cells from CF subjects (F508del/MF-HBE), differentiated at air-liquid interface
Put plainly: HBE assay: Ussing chamber assay of CFTR-mediated short-circuit currents. The settings on record: HBE assay; for EC50: read-out: HBE EC50; for Emax: read-out: HBE Max activity (%); for activation at 10 µM: read-out: HBE Activity at 10 μM (%). In kind it is cell-based. The method, boiled down: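 CFTR-mediated Isc (μA/cm²) equals the peak response to apical 20 μM forskolin minus the residual after a 20 μM each BPO/GlyH-101/CFTR inhibitor 172 cocktail, recorded in Ussing chambers at Vhold 0 mV, 37 °C, pH 7.4, with 30 μM apical amiloride. Cells were F508del/MF HBE cultures preincubated 18-24 h with corrector (concentration range or 10 μM) plus 1 μM ivacaftor in 20% human serum.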

T1 sequence (P13569 with tags, fused parts or gaps DEL508-508): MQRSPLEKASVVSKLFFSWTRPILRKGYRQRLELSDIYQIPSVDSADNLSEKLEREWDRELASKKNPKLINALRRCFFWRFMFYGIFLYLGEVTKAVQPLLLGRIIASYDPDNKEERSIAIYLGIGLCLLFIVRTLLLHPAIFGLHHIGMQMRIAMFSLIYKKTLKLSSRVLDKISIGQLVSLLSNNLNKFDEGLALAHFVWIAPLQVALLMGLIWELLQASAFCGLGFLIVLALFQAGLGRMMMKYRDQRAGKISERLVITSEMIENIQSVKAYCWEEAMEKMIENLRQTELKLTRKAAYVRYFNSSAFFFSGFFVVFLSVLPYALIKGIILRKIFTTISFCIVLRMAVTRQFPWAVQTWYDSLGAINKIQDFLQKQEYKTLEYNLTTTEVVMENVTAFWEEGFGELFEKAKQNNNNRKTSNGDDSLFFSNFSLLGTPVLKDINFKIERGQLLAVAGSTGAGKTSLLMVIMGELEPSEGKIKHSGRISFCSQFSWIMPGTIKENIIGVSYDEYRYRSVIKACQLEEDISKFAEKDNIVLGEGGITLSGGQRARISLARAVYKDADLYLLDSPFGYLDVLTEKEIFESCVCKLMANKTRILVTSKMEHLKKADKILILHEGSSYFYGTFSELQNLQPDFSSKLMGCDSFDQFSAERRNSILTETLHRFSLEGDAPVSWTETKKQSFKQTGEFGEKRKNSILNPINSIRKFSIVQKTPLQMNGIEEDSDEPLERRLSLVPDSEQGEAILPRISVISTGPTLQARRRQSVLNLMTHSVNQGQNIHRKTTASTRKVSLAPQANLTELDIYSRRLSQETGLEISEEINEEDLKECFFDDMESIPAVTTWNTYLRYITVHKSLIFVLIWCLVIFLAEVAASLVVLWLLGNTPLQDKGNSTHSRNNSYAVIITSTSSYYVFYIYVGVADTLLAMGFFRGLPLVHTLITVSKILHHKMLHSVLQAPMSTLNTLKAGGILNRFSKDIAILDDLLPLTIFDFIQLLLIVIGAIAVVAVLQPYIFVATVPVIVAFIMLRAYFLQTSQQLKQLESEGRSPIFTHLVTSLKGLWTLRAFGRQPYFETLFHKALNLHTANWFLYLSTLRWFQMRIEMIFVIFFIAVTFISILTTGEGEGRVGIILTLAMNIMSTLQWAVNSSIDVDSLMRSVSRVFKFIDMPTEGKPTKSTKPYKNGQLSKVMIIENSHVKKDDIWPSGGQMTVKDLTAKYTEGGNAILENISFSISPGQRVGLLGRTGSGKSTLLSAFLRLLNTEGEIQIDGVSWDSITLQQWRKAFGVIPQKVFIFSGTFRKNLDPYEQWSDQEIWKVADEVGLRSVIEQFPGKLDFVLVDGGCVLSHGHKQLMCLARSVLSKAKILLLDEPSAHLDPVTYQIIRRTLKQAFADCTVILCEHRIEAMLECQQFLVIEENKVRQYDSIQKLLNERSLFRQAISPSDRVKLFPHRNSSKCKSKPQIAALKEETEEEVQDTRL

With `Cc1cccc(C)c1-c1cc2nc(n1)NS(=O)(=O)c1cccc(c1)C(=O)N(Cc1cccc(NC3CCOCC3)n1)[C@H](CC(C)(C)C)CO2` [Compound 1419], the EC50 is < 1000 nM and the Emax was > 60%.
`Cc1cccc(C)c1-c1cc2nc(n1)NS(=O)(=O)c1cccc(c1)C(=O)N(Cc1cncc(NC3CCOCC3)n1)[C@H](CC(C)(C)C)CO2` [Compound 1420]: the EC50 is < 1000 nM and the Emax is > 60%.
Regarding `Cc1cccc(C)c1-c1cc2nc(n1)NS(=O)(=O)c1cccc(c1)C(=O)N(Cc1cccc(N(C)CC(C)(C)C3CC3)n1)[C@H](CC(C)(C)C)CO2` [Compound 1421], the activation at 10 µM was > 60%.
Turning to `Cc1cccc(C)c1-c1cc2nc(n1)NS(=O)(=O)c1cccc(c1)C(=O)N(Cc1ncc(OC3CC(C)(C)C3)cn1)[C@H](CC(C)(C)C)CO2` [Compound 1422], the EC50 is < 1000 nM and the Emax was > 60%.
The like results for `Cc1cccc(C)c1-c1cc2nc(n1)NS(=O)(=O)c1cccc(c1)C(=O)N(Cc1ncc(OC3CC(C)(C)C3)cn1)[C@H](CC(C)C)CO2` [Compound 1423] were, in that order, 1000 to 3000 nM and > 60%.
The like results for `Cc1cccc(C)c1-c1cc2nc(n1)NS(=O)(=O)c1cccc(c1)C(=O)N(Cc1ncc(OC(F)(F)F)cn1)[C@H](CC(C)(C)C)CO2` [Compound 1425] were, in that order, < 1000 nM and > 60%.
Consider `Cc1cccc(C)c1-c1cc2nc(n1)NS(=O)(=O)c1cccc(c1)C(=O)N(Cc1ncc(OC3CCC3)cn1)[C@H](CC1CCC1)CO2` [Compound 1426], for which the EC50 was < 1000 nM and the Emax is > 60%.
In the case of `Cc1cccc(C)c1-c1cc2nc(n1)NS(=O)(=O)c1cccc(c1)C(=O)N(Cc1cccc(N(C)C(C)C(C)(C)C)n1)[C@H](CC(C)(C)C)CO2` (stereo partly drawn) [Compound 1427], the activation at 10 µM is > 60%.
In the case of `Cc1cccc(C)c1-c1cc2nc(n1)NS(=O)(=O)c1cccc(c1)C(=O)N(Cc1cccc(N3CCC[C@@H]3CC(C)C)n1)[C@H](CC(C)(C)C)CO2` [Compound 1428], the EC50 was < 1000 nM and the Emax is > 60%.
The like results for `Cc1cccc(C)c1-c1cc2nc(n1)NS(=O)(=O)c1cccc(c1)C(=O)N(Cc1ncc(OC(F)F)cn1)[C@H](CC(C)(C)C)CO2` [Compound 1430] were, in that order, < 1000 nM and > 60%.
The like results for `Cc1cccc(C)c1-c1cc2nc(n1)NS(=O)(=O)c1cccc(c1)C(=O)N(Cc1ncc(OCC(F)(F)F)cn1)[C@H](CC(C)(C)C)CO2` [Compound 1431] were, in that order, < 1000 nM and > 60%.
With `CO[C@H]1C[C@@H](Oc2cnc(CN3C(=O)c4cccc(c4)S(=O)(=O)Nc4nc(cc(-c5c(C)cccc5C)n4)OC[C@H]3CC(C)C)nc2)C1` [Compound 1432], the EC50 was < 1000 nM and the Emax is > 60%.
Regarding `Cc1cccc(C)c1-c1cc2nc(n1)NS(=O)(=O)c1cccc(c1)C(=O)N(Cc1ncc(OC3CCCOC3)cn1)[C@H](CC(C)C)CO2` (stereo partly drawn) [Compound 1433], the activation at 10 µM was > 60%.
On to `Cc1cccc(C)c1-c1cc2nc(n1)NS(=O)(=O)c1cccc(c1)C(=O)N(Cc1ncc(O[C@H](C)C(C)C)cn1)[C@H](CC(C)C)CO2` [Compound 1434], for which the EC50 fell in the range of 1000 to 3000 nM and the Emax was > 60%.
For the compound `COC[C@@H]1COCCN1c1cccc(CN2C(=O)c3cccc(c3)S(=O)(=O)Nc3nc(cc(-c4c(C)cccc4C)n3)OC[C@H]2CC(C)(C)C)n1` [Compound 1435], the activation at 10 µM was > 60%.
For `Cc1cc(C2COCCO2)cnc1CN1C(=O)c2cccc(c2)S(=O)(=O)Nc2nc(cc(-c3c(C)cccc3C)n2)OC[C@H]1CC(C)(C)C` (stereo partly drawn) [Compound 1436], the activation at 10 µM is > 60%, the EC50 was < 1000 nM and the Emax is > 60%.
On to `COCCN(c1cncc(CN2C(=O)c3cccc(c3)S(=O)(=O)Nc3nc(cc(-c4c(C)cccc4C)n3)OC[C@H]2CC(C)(C)C)n1)C1CCCC1` [Compound 1437], for which the EC50 was < 1000 nM and the Emax is > 60%.
On the same counts, the results for `CCO[C@H]1CCN(c2cnc(CN3C(=O)c4cccc(c4)S(=O)(=O)Nc4nc(cc(-c5c(C)cccc5C)n4)OC[C@H]3CC(C)(C)C)nc2)C1` [Compound 1438] are < 1000 nM and > 60%.
On the same counts, the results for `COC[C@H]1CCN(c2cnc(CN3C(=O)c4cccc(c4)S(=O)(=O)Nc4nc(cc(-c5c(C)cccc5C)n4)OC[C@H]3CC(C)(C)C)nc2)C1` [Compound 1439] are < 1000 nM and > 60%.
On the same counts, the results for `Cc1cccc(C)c1-c1cc2nc(n1)NS(=O)(=O)c1cccc(c1)C(=O)N(Cc1ncc(N3CC[C@](C)(F)C3)cn1)[C@H](CC(C)(C)C)CO2` [Compound 1440] are < 1000 nM and > 60%.
As to `Cc1cccc(C)c1-c1cc2nc(n1)NS(=O)(=O)c1cccc(c1)C(=O)N(Cc1ncc(N3CC[C@@](C)(F)C3)cn1)[C@H](CC(C)(C)C)CO2` [Compound 1441], the EC50 is < 1000 nM and the Emax was > 60%.
As for `Cc1cccc(C)c1-c1cc2nc(n1)NS(=O)(=O)c1cccc(c1)C(=O)N(Cc1ncc(N3CCC(C)(F)CC3)cn1)[C@H](CC(C)(C)C)CO2` [Compound 1442], the activation at 10 µM is > 60%.
On the same count and under the same terms, the result for `Cc1cccc(C)c1-c1cc2nc(n1)NS(=O)(=O)c1cccc(c1)C(=O)N(Cc1ncc(N3CCC(F)(F)CC3)cn1)[C@H](CC(C)(C)C)CO2` [Compound 1443] reads > 60%.
On to `Cc1cccc(C)c1-c1cc2nc(n1)NS(=O)(=O)c1cccc(c1)C(=O)N(Cc1ncc(N3CC(F)(F)C3)cn1)[C@H](CC(C)(C)C)CO2` [Compound 1444], for which the EC50 is < 1000 nM and the Emax was > 60%.
`Cc1cccc(C)c1-c1cc2nc(n1)NS(=O)(=O)c1cccc(c1)C(=O)N(Cc1cccc(N(CC3CCCO3)C(C)C)n1)[C@H](CC(C)(C)C)CO2` (stereo partly drawn) [Compound 1445]: the EC50 fell in the range of 1000 to 3000 nM and the Emax is > 60%.
For `Cc1cccc(C)c1-c1cc2nc(n1)NS(=O)(=O)c1cccc(c1)C(=O)N(Cc1cccc(N(CC3CCCO3)C(C)C)n1)[C@H](CC(C)(C)C)CO2` (stereo partly drawn) [Compound 1446], the “HBE Max activity (%)” value was “+++ (+++ is >60+)” and the EC50 was < 1000 nM.
`CC[C@@H](C)Oc1cnc(CN2C(=O)c3cccc(c3)S(=O)(=O)Nc3nc(cc(-c4c(C)cccc4C)n3)OC[C@H]2CC2CC2)nc1` [Compound 1447]: the 50% effective concentration (EC50) is < 1000 nM and the Emax is > 60%.
The like results for `Cc1cccc(C)c1-c1cc2nc(n1)NS(=O)(=O)c1cccc(c1)C(=O)N(Cc1ccnc(N3CCC[C@H]3C)n1)[C@H](CC(C)(C)C)CO2` [Compound 1449] were, in that order, < 1000 nM and > 60%.
On the same counts, the results for `COC[C@H]1CC[C@@H](C)N1c1cncc(CN2C(=O)c3cccc(c3)S(=O)(=O)Nc3nc(cc(-c4c(C)cccc4C)n3)OC[C@H]2CC(C)(C)C)n1` [Compound 1450] are < 1000 nM and > 60%.
On the same counts, the results for `CO[C@H](C)[C@@H]1CCCN1c1cncc(CN2C(=O)c3cccc(c3)S(=O)(=O)Nc3nc(cc(-c4c(C)cccc4C)n3)OC[C@H]2CC(C)(C)C)n1` [Compound 1451] are < 1000 nM and > 60%.
In the case of `CC[C@H](C)Oc1cnc(CN2C(=O)c3cccc(c3)S(=O)(=O)Nc3nc(cc(-c4c(C)cccc4C)n3)OC[C@H]2CC2CC2)nc1` [Compound 1453], the EC50 lay within 1000 to 3000 nM and the Emax was > 60%.
The like results for `Cc1cccc(C)c1-c1cc2nc(n1)NS(=O)(=O)c1cccc(c1)C(=O)N(Cc1ncc(OC3CC(C)(C)C3)cn1)[C@H](CC1CC1)CO2` [Compound 1454] were, in that order, < 1000 nM and > 60%.
On the same counts, the results for `Cc1cccc(C)c1-c1cc2nc(n1)NS(=O)(=O)c1cccc(c1)C(=O)N(Cc1ncc(O[C@@H](C)C(C)C)cn1)[C@H](CC1CC1)CO2` [Compound 1455] are < 1000 nM and > 60%.
Turning to `Cc1cccc(C)c1-c1cc2nc(n1)NS(=O)(=O)c1cccc(c1)C(=O)N(Cc1cnc(N(C)CCOC(C)C)o1)[C@H](CC(C)(C)C)CO2` [Compound 1460], the activation at 10 µM is > 60%.
`CCO[C@H]1C[C@@H](Oc2cnc(CN3C(=O)c4cccc(c4)S(=O)(=O)Nc4nc(cc(-c5c(C)cccc5C)n4)OC[C@H]3CC(C)C)nc2)C1` [Compound 1461]: the EC50 was < 1000 nM and the Emax was > 60%.
On the same counts, the results for `Cc1cccc(C)c1-c1cc2nc(n1)NS(=O)(=O)c1cccc(c1)C(=O)N(Cc1ncc(OC3CCCC3)cn1)[C@H](CC1CC1)CO2` [Compound 1463] are < 1000 nM and > 60%.
Turning to `Cc1cccc(C)c1-c1cc2nc(n1)NS(=O)(=O)c1cccc(c1)C(=O)N(Cc1ncc(N3CCC(C)(C)C3)cn1)[C@H](CC1CC1)CO2` [Compound 1464], the EC50 was < 1000 nM and the Emax is > 60%.
Turning to `Cc1cccc(C)c1-c1cc2nc(n1)NS(=O)(=O)c1cccc(c1)C(=O)N(Cc1ncc(OC(C)C)cn1)C(C(C)C(C)C)CO2` (stereo not drawn) [Compound 1466], the activation at 10 µM was > 60%.
With `Cc1cccc(C)c1-c1cc2nc(n1)NS(=O)(=O)c1cccc(c1)C(=O)N(Cc1ncc(OC(C)C)cc1F)[C@H](CC1CC1)CO2` [Compound 1467], the EC50 was in the range of 1000 to 3000 nM and the Emax was > 60%.
The like results for `Cc1cccc(C)c1-c1cc2nc(n1)NS(=O)(=O)c1cccc(c1)C(=O)N(Cc1ncc(OC3CCC3)cc1F)[C@H](CC1CC1)CO2` [Compound 1468] were, in that order, < 1000 nM and > 60%.
On the same counts, the results for `Cc1cccc(C)c1-c1cc2nc(n1)NS(=O)(=O)c1cccc(c1)C(=O)N(Cc1ncc(N3CCC(F)(F)C3)cn1)[C@H](CC1CC1)CO2` [Compound 1469] are < 1000 nM and > 60%.

The term EC50 denotes the concentration giving half of the maximal effect.

The values are drawn from patent publication US20240150377A1, “MODULATORS OF CYSTIC FIBROSIS TRANSMEMBRANE CONDUCTANCE REGULATOR” (VERTEX PHARMACEUTICALS INCORPORATED, priority 2020, published 2024).
